Measurements as given in PubChem BioAssay (NCI).
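The compound was tested at five concentrations on cells cultured in 96-well plates, with a 48-hour exposure period. GI50 is the concentration that inhibits growth by half. TGI marks complete inhibition of growth.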

Tests used:
Assay in all cases: inhibition of tumour cell growth, NCI panel, 48 h
M14 melanoma = system: M14 melanoma
NCI-H460 lung = system: NCI-H460 lung
OVCAR-3 ovarian = system: OVCAR-3 ovarian
OVCAR-4 ovarian = system: OVCAR-4 ovarian
SK-MEL-5 melanoma = system: SK-MEL-5 melanoma
SK-OV-3 ovarian = system: SK-OV-3 ovarian
UACC-62 melanoma = system: UACC-62 melanoma
UO-31 renal = system: UO-31 renal
MDA-MB-435 = system: MDA-MB-435
PC-3 prostate = system: PC-3 prostate

| Structure (SMILES) | TGI (M14 melanoma) | TGI (NCI-H460 lung) | TGI (OVCAR-3 ovarian) | TGI (OVCAR-4 ovarian) | TGI (SK-MEL-5 melanoma) | TGI (SK-OV-3 ovarian) | TGI (UACC-62 melanoma) | TGI (UO-31 renal) | TGI (MDA-MB-435) | TGI (PC-3 prostate) | GI50 (M14 melanoma) | GI50 (NCI-H460 lung) | GI50 (OVCAR-3 ovarian) | GI50 (OVCAR-4 ovarian) | GI50 (SK-MEL-5 melanoma) | GI50 (SK-OV-3 ovarian) | GI50 (UACC-62 melanoma) | GI50 (UO-31 renal) |
| --- | --- | --- | --- | --- | --- | --- | --- | --- | --- | --- | --- | --- | --- | --- | --- | --- | --- | --- |
| NC(=O)c1ccc(Cl)c([N+](=O)[O-])c1 | > 100 µM | > 100 µM | > 100 µM | > 100 µM | > 100 µM | > 100 µM | > 100 µM | > 100 µM | – | – | – | – | – | – | – | – | – | – |
| O=c1/c(=N\Nc2ccccc2)c2cccc3ccc4cccc1c4c32 | > 100 µM | – | > 100 µM | > 100 µM | > 100 µM | > 100 µM | > 100 µM | > 100 µM | > 100 µM | > 100 µM | – | – | – | – | – | – | – | – |
| C=C1C[C@@H]2C[C@@H](C)CC(O)[C@]2(CCCN)C1O (stereo partly drawn) | > 100 µM | > 100 µM | > 100 µM | > 100 µM | > 100 µM | > 100 µM | > 100 µM | > 100 µM | – | – | – | – | – | – | – | – | – | – |
| C1=CCCC=CCC1.C[PH+](C)C.C[PH+](C)C.C[PH+](C)C.[Cl-].[Ir] | > 100 µM | > 100 µM | 77.4 µM | > 100 µM | > 100 µM | > 100 µM | > 100 µM | > 100 µM | – | – | > 100 µM | 77.9 µM | 29.6 µM | 67.8 µM | 70 µM | > 100 µM | 32.6 µM | > 100 µM |
| c1ccc(OC2=NC3=S(S2)SC(Oc2ccccc2)=N3)cc1 | 34.8 µM | > 100 µM | 28.6 µM | – | 36.3 µM | 65.2 µM | 37.6 µM | 36.3 µM | – | – | – | – | – | – | – | – | – | – |
